Assays:
ROS (O2− and H2O2) = experiment: Flow cytometric measurement of ROS production in BMDMs; format: cell-based, mouse; conditions: LPS-primed BMDMs, compound 1 h, ATP 30 min (Fig. 3d)
Protocol: Intracellular ROS levels were measured by flow cytometry from cells cultured in serum-free medium and loaded with the redox-sensitive dye 2 µM dihydroethidium (DHE for O2^−; Calbiochem) or 10 µM 2′,7′-Dichlorofluorescin diacetate (DCFH-DA for H2O2; Calbiochem)[18],[19]. The cells were thoroughly and quickly washed with pulse spin and immediately acquired for analyses in FACSCalibur (BD Biosciences, San Jose, CA). The data were plotted using CellQuest software (BD Biosciences).
(§1) Figure 3 TIPTP robustly suppresses LPS/ATP-mediated Rubicon-p22phox interaction and ROS-mediated inflammation. (a) Structure of the TIPTP. (b) MTT assay for cell viability. BMDMs were incubated with TIPTP for the indicated times at the indicated TIPTP concentrations (upper). WCLs were used for IB with α22phox, αRubicon, or αActin (lower). (c–f) LPS (100 ng/ml)-primed BMDMs were treated with compounds for 1 h, and then activated with ATP (1 mM) for 30 min. (c) NADPH oxidase activity. (d) FACS analysis for superoxide and hydrogen peroxide (upper). Quantitative analysis of mean fluorescence intensities of ROS (lower). (e) BMDMs were incubated with increasing concentrations of compound 1 and TIPTP (com 2) (***). IP with αRubicon, followed by IB with αp22phox, αBeclin-1, αUVRAG, αRubicon. […] (f) Culture supernatants were harvested and analyzed for cytokines by ELISA. […]

CYP2D6 = target: T1, CYP2D6 (Homo sapiens, UniProt P10635); experiment: CYP450 inhibition assay in human liver microsomes; format: in vitro ADME
T1 construct: To human liver microsomes (0.25 mg/mL); from tissue; host or cells: human liver microsomes
T1 sequence (P10635 whole entry): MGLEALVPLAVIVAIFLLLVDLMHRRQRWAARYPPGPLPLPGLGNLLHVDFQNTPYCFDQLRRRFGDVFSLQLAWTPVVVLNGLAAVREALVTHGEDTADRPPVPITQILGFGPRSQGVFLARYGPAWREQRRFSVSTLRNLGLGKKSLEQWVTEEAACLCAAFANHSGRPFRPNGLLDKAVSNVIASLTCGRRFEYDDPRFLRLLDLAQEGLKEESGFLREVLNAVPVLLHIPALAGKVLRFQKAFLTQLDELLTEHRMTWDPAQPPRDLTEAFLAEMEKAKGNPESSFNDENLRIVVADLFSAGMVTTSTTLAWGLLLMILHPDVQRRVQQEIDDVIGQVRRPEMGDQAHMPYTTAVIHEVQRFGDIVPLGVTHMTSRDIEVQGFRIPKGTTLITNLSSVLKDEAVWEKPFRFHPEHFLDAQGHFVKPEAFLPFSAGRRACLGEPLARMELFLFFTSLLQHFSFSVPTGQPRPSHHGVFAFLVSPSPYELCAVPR
Protocol: (§2) All of CYP inhibition, microsomal stability and plasma stability experiments were performed by New Drug Development Center, the Daegu-Gyeongbuk Medical Innovation Foundation (DGMIF), South Korea. To human liver microsomes (0.25 mg/mL), 0.1 M phosphate buffer (pH 7.4), a cocktail of five probe substrates (Phenacetin 50 μM, Diclofenac 10 μM, S-mephenytoin 100 μM, Dextromethorphan 5 μM, and Midazolam 2.5 μM), and tested compounds were added at concentrations of 0 μM (as a control) and 10 μM. After incubation at 37 °C for 5 min, NADPH generation system solution was also added and incubated at 37 °C for 15 min again. To terminate the reaction, acetonitrile including internal standard (Terfenadine) was added, and the solution was centrifuged for 5 min (14 000 rpm, 4 °C). The supernatant was then injected into the LC-MS/MS system to simultaneously analyze the metabolites of the probe substrates and evaluate the % CYP inhibition of the tested compound.

CYP1A2 = target: T2, CYP1A2 (Homo sapiens, UniProt P05177); experiment: CYP450 inhibition assay in human liver microsomes; format: in vitro ADME
T2 construct: To human liver microsomes (0.25 mg/mL); from tissue; host or cells: human liver microsomes
T2 sequence (P05177 1-516): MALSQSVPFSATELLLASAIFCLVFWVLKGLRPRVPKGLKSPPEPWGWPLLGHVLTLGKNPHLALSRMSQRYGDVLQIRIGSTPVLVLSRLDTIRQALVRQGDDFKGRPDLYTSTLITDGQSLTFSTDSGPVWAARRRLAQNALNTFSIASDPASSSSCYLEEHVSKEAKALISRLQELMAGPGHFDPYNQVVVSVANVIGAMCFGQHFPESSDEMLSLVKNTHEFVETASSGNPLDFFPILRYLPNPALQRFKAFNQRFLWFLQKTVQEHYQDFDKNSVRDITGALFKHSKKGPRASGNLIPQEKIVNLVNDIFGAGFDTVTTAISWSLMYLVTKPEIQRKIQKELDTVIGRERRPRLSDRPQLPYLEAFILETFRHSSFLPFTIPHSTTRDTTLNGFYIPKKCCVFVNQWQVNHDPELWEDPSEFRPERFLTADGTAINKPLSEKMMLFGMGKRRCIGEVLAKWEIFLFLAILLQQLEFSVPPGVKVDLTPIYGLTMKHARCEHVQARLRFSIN
Protocol: as §2

CYP3A4 = target: T3, CYP3A4 (Homo sapiens, UniProt P08684); experiment: CYP450 inhibition assay in human liver microsomes; format: in vitro ADME
T3 construct: To human liver microsomes (0.25 mg/mL); from tissue; host or cells: human liver microsomes
T3 sequence (P08684 whole entry): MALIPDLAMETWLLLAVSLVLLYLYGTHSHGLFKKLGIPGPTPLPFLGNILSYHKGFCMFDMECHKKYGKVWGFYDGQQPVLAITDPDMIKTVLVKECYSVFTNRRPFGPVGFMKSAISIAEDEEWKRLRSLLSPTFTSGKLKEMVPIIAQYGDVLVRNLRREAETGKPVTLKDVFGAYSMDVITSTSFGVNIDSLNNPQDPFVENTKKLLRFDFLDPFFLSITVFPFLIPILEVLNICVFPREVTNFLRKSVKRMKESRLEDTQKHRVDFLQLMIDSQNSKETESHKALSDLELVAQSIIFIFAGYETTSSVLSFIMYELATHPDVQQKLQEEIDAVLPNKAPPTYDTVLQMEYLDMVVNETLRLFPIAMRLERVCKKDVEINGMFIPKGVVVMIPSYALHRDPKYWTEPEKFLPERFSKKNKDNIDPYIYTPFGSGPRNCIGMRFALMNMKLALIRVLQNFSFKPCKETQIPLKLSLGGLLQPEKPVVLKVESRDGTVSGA
Protocol: as §2

NLRP3 inflammasome = NLRP3 inflammasome activation in LPS/ATP-treated BMDMs (immunoblot, ELISA); format: cell-based, mouse; conditions: NLRP3 inflammasome-activating stimuli (Fig. 3e, 3f)
Protocol: For immunoblotting, polypeptides were resolved by SDS-polyacrylamide gel electrophoresis and transferred to a PVDF membrane (Bio-Rad). […] Antibody binding was visualized by chemiluminescence (ECL; Millipore) and detected by a Vilber chemiluminescence analyzer (Fusion SL 3; Vilber Lourmat).
Cell culture supernatants, mice sera and synovial fluid were analyzed for cytokine content using the BD OptEIA ELISA set (BD Pharmingen) for the detection of TNF-α, IL-6, IL-1β, and IL-18. All assays were performed as recommended by the manufacturer.
as §1

[1] = Microsomal stability assay (human liver microsomes); format: in vitro ADME
Protocol: To human liver microsomes (0.5 mg/mL) were added 0.1 M phosphate buffer (pH 7.4) and tested compounds (1 μM). After incubation at 37 °C for 5 min, NADPH generation system solution was added and incubated at 37 °C for 30 min. To terminate reaction, acetonitrile including internal standard (chloprapamide) was added, and the solution was centrifuged for 5 min (14,000 rpm, 4 °C). The supernatant was then injected into the LC-MS/MS system to analyze the microsomal stability of the tested compound.

**Q.** For `C[C@@H](Oc1cccc(-n2cc3c(n2)CCCC3)c1)C(=O)Nc1nnc(C(F)(F)F)s1` [TIPTP, (R)-2-(3-(4,5,6,7-tetrahydro-2H-indazol-2-yl)phenoxy)-N-(5-(trifluoromethyl)-1,3,4-thiadiazol-2-yl)propanamide], which “ROS (O2− and H2O2) generation” value (ROS (O2− and H2O2)) is on record?
**A.** inhibited in a dose-dependent manner

**Q.** What about the “CYP (% of control activity @ 10 μM) 2D6” value (CYP2D6; 10 μM) of the same compound?
**A.** 98.2%

**Q.** And the “effect on the CYP2D6 isozyme” value (CYP2D6; in words)?
**A.** negligible

**Q.** What about the “CYP (% of control activity @ 10 μM) 1A2” value (CYP1A2) of the same compound?
**A.** 45.7%

**Q.** What about the “CYP (% of control activity @ 10 μM) 3A4” value (CYP3A4) of the same compound?
**A.** 76.6%

**Q.** What about the “caspase-1 activation, and IL-1β and IL-18 maturation” value (NLRP3 inflammasome) of the same compound?
**A.** significantly decreased

**Q.** And the “metabolism in human hepatic microsomes” value ([1]; in words)?
**A.** easily metabolized

**Q.** And the remaining at 0.5 h, 1 μM ([1]; pH 7.4, human liver microsomes 0.5 mg/mL, 1 μM, 30 min, read-out: Human liver microsomal stability (% remaining after 30 min))?
**A.** 4.4%

— article PMC7067850, “Identification of highly potent and selective inhibitor, TIPTP, of the p22phox-Rubicon axis as a therapeutic agent for rheumatoid arthritis” (Scientific Reports, 2020)
